Common to all, as to type: cell-based
Conditions in all cases: Hepatitis C virus

One test has as its system GT2a-2b-MD2b replicon. In words: Stable replicon assay, comparison to daclatasvir, GT2a-2b-MD2b. From the text:
(§1) The plasmid pSG-hRlucNeo-JFH1 was generated from pSG-Neo-JFH1 (Kato et al. 2003, Gastroentrology 125:1808-1817). A fragment containing the JFH-1 5′ NTR-hRluc-Neo gene and two unique restriction sites (AgeI and PmeI) was synthesized (Integrated DNA Technologies, Coralville, Iowa). The resulting plasmid was digested with AgeI and PmeI and the excised fragment (5′NTR-hRluc-Neo) was ligated into pSG-Neo-JFH1 digested with the same enzymes to generate pSG-hRlucNeo-JFH1. To allow expression of heterologous NS5A sequences, an NS5A shuttle vector was generated from pSG-Neo-JFH1, in which the entire coding sequence of NS5A plus the first eight codons of NS5B were replaced with an AfeI restriction site. This was done by Infusion cloning (Clontech, Mountain View, Calif.) from two PCR products that were generated using pSG-Neo-JFH1 as a template and the following primer pairs: […]
(§2) Stable HCV replicon cell lines were grown in complete media (Dulbecco's modified Eagle medium [DMEM], 2 mM L-glutamine, 0.1 mM essential amino acids, 1 mM sodium pyruvate, 10% fetal bovine serum) with the addition 500 μg/ml […] (G418). […] For stable and transient replicon assays, luciferase activity of compound-treated cells was measured relative to DMSO-treated cells after 72 h incubation using RENILLA-GLO™ Luciferase Assay (Promega). […]

Another test relates to GT2a-5a-SA13 replicon. In words: Stable replicon assay, comparison to daclatasvir, GT2a-5a-SA13.
From the text: as §1, §2

Another test relates to GT2a-6a-EUKH2 replicon. In words: Stable replicon assay, comparison to daclatasvir, GT2a-6a-EUKH2. An excerpt:
The plasmid pSG-hRlucNeo-JFH1 was generated from pSG-Neo-JFH1 (Kato et al. 2003, Gastroentrology 125:1808-1817). A fragment containing the JFH-1 5′ NTR-hRluc-Neo gene and two unique restriction sites (AgeI and PmeI) was synthesized (Integrated DNA Technologies, Coralville, Iowa). The resulting plasmid was digested with AgeI and PmeI and the excised fragment (5′NTR-hRluc-Neo) was ligated into pSG-Neo-JFH1 digested with the same enzymes to generate pSG-hRlucNeo-JFH1. To allow expression of heterologous NS5A sequences, an NS5A shuttle vector was generated from pSG-Neo-JFH1, in which the entire coding sequence of NS5A plus the first eight codons of NS5B were replaced with an AfeI restriction site. This was done by Infusion cloning (Clontech, Mountain View, Calif.) from two PCR products that were generated using pSG-Neo-JFH1 as a template and the following primer pairs:
To express GT6a NS5A chimeric sequences a JFH1-based N-terminal NS5A (NS5A residues 2-107) shuttle vector was constructed by Infusion cloning from two PCR products that were generated using pSG-Neo-JFH1 as a template and the following primers: […]
Purified PCR products were inserted into an NsiI/SnaBI digested pSG-Neo-JFH1 vector by Infusion cloning following the manufacturer's instructions to generate pSG-Neo-JFH1-Nterm_5Ashuttle. […]
(In general: In antiviral work, replicon cells carry a viral genome segment that copies itself.)

In test [1] the test system is HCV genotype 1a replicon, NS5A K24G. In words: Transient replication assay, GT1a NS5A K24G.
Test [2] concerns HCV genotype 1a replicon, NS5A L31M. In words: Transient replication assay, GT1a NS5A L31M.
The subject of test [3] is HCV genotype 1a replicon, NS5A H58D. In words: Transient replication assay, GT1a NS5A H58D.
The subject of test [4] is HCV genotype 1a replicon, NS5A M28V Y93H. In words: Transient replication assay, GT1a NS5A M28V Y93H.

Each structure is given as a SMILES string.

Consider `COC(=O)N[C@H](C(=O)N1C[C@]2(CCCOC2)C[C@H]1c1ncc(-c2ccc(-c3ccc4c(ccc5nc([C@@H]6C[C@@H]7CCC[C@@H]7N6C(=O)[C@@H](NC(=O)OC)C(C)C)[nH]c54)c3)cc2)[nH]1)C(C)C` [Compound 16], for which the EC50 (usually the concentration that produces a half-maximal response) in the test on GT2a-2b-MD2b replicon came out at 21 nM; in the test with GT2a-5a-SA13 replicon, 0.005 nM; in the test on GT2a-6a-EUKH2 replicon, 0.014 nM; in test [1] it was 0.0021 nM; in test [2] it was 0.0106 nM; in test [3], 0.01 nM. In test [4], this compound displayed a 50% effective concentration (EC50) of 15 nM.

In the case of `COC(=O)N[C@H](C(=O)N1CCC[C@H]1c1nc(-c2ccc(-c3ccc(-c4c[nH]c([C@@H]5CCCN5C(=O)[C@@H](NC(=O)OC)C(C)C)n4)cc3)cc2)c[nH]1)C(C)C` [Daclatasvir, reference compound], the EC50 was 33 nM in the test on GT2a-2b-MD2b replicon; 0.009 nM with GT2a-5a-SA13 replicon; 0.143 nM in the test with GT2a-6a-EUKH2 replicon; 0.02 nM in test [1]; 0.67 nM in test [2]; 1.2 nM in test [3]. A half-maximal response in test [4] (EC50) required 17.5 nM.

The values are drawn from US10407445B2, “Hepatitis C virus inhibitors” (ENANTA PHARMACEUTICALS, INC., priority 2013, dated 2019).
